# Data from patent US6376666B1 (Nauchno-Issledovatelsky Institut Farmakologii Rossiiskoi …, priority 1994, dated 2002).
# Experiments:
# Type in all cases: in vivo
# C57B1/6 mice = experiment: open-field test, C57B1/6 mice (active type of emotional-stress reaction); set-up: key to Total activity: sum of all locomotor activity counts (crossings + rearings) in 3 min; settings: for Central activity (crossings) / Peripheral activity (crossings) / Total activity / Vertical activity (rearings): M ± mx
# Description: The main point of this approach consists in comparative analysis of the behavioural effects of tested compounds in two inbred strains of mice Balb/c and C57B1/6 with different hereditary types of emotional-stress reactions (ESR). The anxiolytic effect was estimated as the activation of the locomotor activity of animals with “passive” type of ESR (Balb/c mice). The main index describing the sedative properties of tested drugs was the inhibition of the locomotor activity of mice with “active” type of ESR (C57B1/6 strain). The anxioselectivity was evaluated according to coincidence of doses range which activated or inhibited the behavior of mice of different strains. Earlier this approach has been successfully used for estimation of anxioselective activity of such known drugs as phenazepam [Seredenin S. B. et al., Bull.Exp.Biol.Med., 1979, v.88, N7, p.38; Seredenin S. B. et al., Ann.Inst.Super.Sanita, 1990, v.26, N1, p.81-88], mexidol [Seredenin S. B. et al., Khimiko-Farmatsevt.Zhurnal, 1987, N2, p.134; Vironina T. A., Seredenin S. B., Ann.Inst.Super.Sanita, 1988, v.24, N3, p.461-466] and gidazepam [Seredenin S. B. et al., in: “Gidazepam” Kiev, Naukova Dumka, 1992, p.92; Seredenin S. B., Blednov Yu. A., Phys.Chem.Biol.Med., 1993, v.1, N1, p.53-60].
# Male C57B1/6 and Balb/c mice (“Stolbovaya” animal farm), weighing 20-22 g were used. The animals were housed in a separate animal room in groups of ten and maintained on 12 h light-dark cycle (light from 8.00 till 20.00) with free access to standard food and water during two weeks before experiment. Testing was performed between 9.00 and 13.00. Every used compound was administered intraperitoneally in water solutions 30 min before testing (0,1 ml solution per 10 g of weight). The “open-field” apparatus consisted of cylinder closed from one end, illuminated by four 75 W lamps fixed to the walls 100 cm above the floor. The “open-field” apparatus was 100 cm in diameter and white-painted; the floor was marked with 3 black circles and some radial lines divided the floor into 16 peripheral and 8 central segments. 30 min after injection each animal was placed in the same peripheral square on the floor for 3 min of testing after 1 min exposure in the dark chamber. The following behavior variables were recorded: 1) the number of crossings in the peripheral area (peripheral activity); 2) the number of crossings in the central segments (central activity); 3) the number of rearings (vertical activity); 4) the emotionality was measured as the number of defecations during the test. The sum of all types of locomotor activity was marked as total activity. The t-Student test was used for statistical analysis.
# Balb/c mice = experiment: open-field test, Balb/c mice (passive type of emotional-stress reaction); set-up: key to Total activity: sum of all locomotor activity counts (crossings + rearings) in 3 min; settings: for effect on the behavior (locomotor activity) of Balb/c mice in open-field test, in words: i.p., screening
# Summary of the method: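 Male mice, 20-22 g, dosed i.p. in water 30 min before a 3-min open-field test after 1 min in darkness; peripheral, central, rearing and total activity plus defecations recorded; Student t-test. Anxiolysis read as Balb/c activation, sedation as C57B1/6 inhibition.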
# outbred male rats = experiment: conflict Vogel test (punished licking of water); settings: M ± mx
# Description: The study of anxiolytic activity of chosen compounds was carried out in the experiments with outbred male rats weighing 180-200 g in standard conflict Vogel' procedure [Voronina T. A. et al., in: “Phenazepam”, Naukova Dumka, Kiev, 1982, p.89, 93, 146]. The main aim of the initial step of experiments was the training of rats to develop the feeling of thirst with following experience of water licking from bottle in the experimental chamber. The animals were deprived of water for 24 hours and were placed in the test chamber for 5-min adaptation period during which they had free access to the drinking bottle. After another 24 h deprivation period the rats were placed again in the test chamber and were allowed to drink water for 5 sec. Immediately afterwards drinking attempts were punished by electric shock (0,5 mA). Under this collision of drinking and protective reflexes the extremal situation was developed. In this situation the anxiety of punishment prevented the licking process. The number of shocks received throughout a 5-min experimental session was recorded.
# cats = experiment: hemodynamics and activity of intact heart in cats under anesthesia; settings: cats i.v.
# Description: The effects of compounds on the hemodynamics and activity of intact heart were studied in cats under anesthesia. The experiments were carried out under conditions of open chest. The phase curve of aortic blood flow was the main index of cardiac activity. The compounds were administered i.v. in physiological solution. The t-Student' test was used to estimate the statistical significance.
# outbred male mice = experiment: rotarod test (myorelaxant activity); settings: cut-off 120 sec
# Description: The myorelaxant activity of choosen compounds were studied in the outbred male mice weighing 22-25 g in rotarod test [Voronina T. A. et al., in: “Phenazepam”, Naukova Dumka, Kiev, 1982, p.145]. The animals were placed on the horizontal rotarod (D=2 cm) calibrated for a fixed speed of 4 rpm. According to the rotarod experimental protocol, normal motor coordination was defined by the ability of the animals to remain on the rotarod for an arbitrarily selected time of 120 sec.
# male outbred mice = experiment: potentiation of sleep induced by sodium thiopental
# Description: The possible hypnotic effects of choosen drugs was estimated according to method of potentiation of sleep induced by sodium thiopental. The male outbred mice weighing 20-25 g were injected i.p. with sodium thiopental at dose of 70 mg/kg. Two parameters were estimated: latent time of sleeping and duration of sleep. The used compounds were administered i.p. 30 min prior injection of sodium thiopental.
# [1] = tested on: ventricular fibrillations; experiment: ventricular fibrillation, 7-min occlusion and reperfusion of coronary artery in anesthetized rats; settings: anesthetized rats i.v.; bonnecor 1,0, IX 2,0, X (printed) 1,0 mg/kg
# Description: The experiments were conducted in male rats weighing 180-240 g and anesthetized with nembutal (60 mg/kg i.v.) with open chest and artificial respiration. The occlusion of the left coronary artery was performed 1-2 min after experiment beginning with following reperfusion after 7 min. During this period time according to literature data [Krzeminski T., Grzyb J., Kurcok A., Brus R.: Pol.J.Pharmacol., 1992, 44, Suppl., p.169-170] the maximum number of ventricular fibrillations (70-100%) were registered. The ECG in the 2nd standard lead was recorded in “Mingograph-81”. The number of ventricular fibrillations during occlusion and reperfusion periods, the life menacing arrhythmia (fibrillation+paroxysmal ventricular tachycardia) and total number of arrhythmias were calculated. The known antiarrhythmic drug bonnecor was used as the reference agent [Grigorieva E. K., Gorbunova V. V. in: “New antiarrhythmic drug—bonnecor (the pharmacology and clinical usage)”, M., 1993, p.64-67]. The compounds were injected i.v. at the following doses: bonnecor—1,0 mg/kg, compound IX—2,0 mg/kg, compound XX—1,0 mg/kg. The control animals were administered with the equivalent volume of physiological solution (1,0 ml/kg). 4 series of experiments were carried out in 80 rats. The results were assessed according to the method of point scale: the absence of arrhythmia—0 point, extrasystole—1 point, paroxysmal ventricular tachycardia—2 points, ventricular fibrillation—3 points, fibrillation observed during the occlusion of coronary vessel—4 points. For statistical analysis the Fisher's exact probability and Wilconson's methods were used.
# [Krzeminski T., Grzyb J., Kurcok A., Brus R.: Pol.J.Pharmacol., 1992, 44, Suppl., p.169-170] have shown that 7 min occlusion with following reperfusion of coronary artery in anesthetized rats produced the ventricular fibrillation (68-100%). Defibrotide and prostacycline decreased the number of fibrillations. We have studied the antifibrillator activity of some derivatives of 2-mercaptbenzimidazole in this model with disturbances of heart rhythm. Bonnecor (1,0 mg/kg) was used as the reference drug. It is well known that this agent produces apronouncedantifibrillatoryactivity [Grigorieva E. K., Gorbunova V. V. in: “New antiarrhythmic drug-bonnecor (the pharmacology and clinical usage)”, M., 1993, p.64-67].
# [2] = 0.5 mg/kg i.p. 30 min before thiopental 70 mg/kg i.p.
# [3] = 1.0 mg/kg i.p. 30 min before thiopental 70 mg/kg i.p.
# [4] = 5.0 mg/kg i.p. 30 min before thiopental 70 mg/kg i.p.
# [5] = 10.0 mg/kg i.p. 30 min before thiopental 70 mg/kg i.p.
compound,measurement,setting,value
"Cc1cc2nc(SCCN3CCOCC3)[nH]c2cc1C [XV, 2-[2-(Morpholino)ethylthio]-5,6-dimethylbenzimidazole]",Central activity (crossings),C57B1/6 mice; 1.0 mg/kg i.p.,39.0 ± 6.9
same,Peripheral activity (crossings),C57B1/6 mice; 1.0 mg/kg i.p.,87.8 ± 6.7
same,Total activity,C57B1/6 mice; 1.0 mg/kg i.p.,138.2 ± 16.1
same,Vertical activity (rearings),C57B1/6 mice; 1.0 mg/kg i.p.,11.4 ± 2.5
same,Central activity (crossings),C57B1/6 mice; 5.0 mg/kg i.p.,36.4 ± 5.7
same,Peripheral activity (crossings),C57B1/6 mice; 5.0 mg/kg i.p.,87.8 ± 14.6
same,Total activity,C57B1/6 mice; 5.0 mg/kg i.p.,139.1 ± 22.6
same,Vertical activity (rearings),C57B1/6 mice; 5.0 mg/kg i.p.,14.9 ± 2.3
same,Central activity (crossings),C57B1/6 mice; 50.0 mg/kg i.p.,35.0 ± 8.1
same,Peripheral activity (crossings),C57B1/6 mice; 50.0 mg/kg i.p.,54.1 ± 10.7
same,Total activity,C57B1/6 mice; 50.0 mg/kg i.p.,95.4 ± 20.4
same,Vertical activity (rearings),C57B1/6 mice; 50.0 mg/kg i.p.,6.3 ± 1.6
same,"effect on locomotor activity of C57B1/6 mice in open-field test, in words","C57B1/6 mice; i.p., doses that activate Balb/c mice",without any changes in locomotor activity
same,Number of defecations,"Balb/c mice; 0.01 mg/kg i.p., M ± mx",0.5 ± 0.5
same,Peripheral activity (crossings),"Balb/c mice; 0.01 mg/kg i.p., M ± mx",6.9 ± 1.8
same,Total activity,"Balb/c mice; 0.01 mg/kg i.p., M ± mx",6.9 ± 1.8
same,Number of defecations,"Balb/c mice; 0.1 mg/kg i.p., M ± mx",1.0 ± 0.7
same,Peripheral activity (crossings),"Balb/c mice; 0.1 mg/kg i.p., M ± mx",11.1 ± 2.1
same,Total activity,"Balb/c mice; 0.1 mg/kg i.p., M ± mx",11.2 ± 2.1
same,Central activity (crossings),"Balb/c mice; 0.5 mg/kg i.p., M ± mx",0.5 ± 0.4
same,Number of defecations,"Balb/c mice; 0.5 mg/kg i.p., M ± mx",1.6 ± 0.7
same,Peripheral activity (crossings),"Balb/c mice; 0.5 mg/kg i.p., M ± mx",32.1 ± 4.7
same,Total activity,"Balb/c mice; 0.5 mg/kg i.p., M ± mx",32.6 ± 5.0
same,Central activity (crossings),"Balb/c mice; 1.0 mg/kg i.p., M ± mx",5.1 ± 4.4
same,Number of defecations,"Balb/c mice; 1.0 mg/kg i.p., M ± mx",2.0 ± 0.9
same,Peripheral activity (crossings),"Balb/c mice; 1.0 mg/kg i.p., M ± mx",37.7 ± 5.5
same,Total activity,"Balb/c mice; 1.0 mg/kg i.p., M ± mx",42.8 ± 9.9
same,Number of defecations,"Balb/c mice; 5.0 mg/kg i.p., M ± mx",3.6 ± 0.9
same,Peripheral activity (crossings),"Balb/c mice; 5.0 mg/kg i.p., M ± mx",39.1 ± 8.6
same,Total activity,"Balb/c mice; 5.0 mg/kg i.p., M ± mx",39.1 ± 8.6
same,Central activity (crossings),"Balb/c mice; 10.0 mg/kg i.p., M ± mx",0.6 ± 0.5
same,Peripheral activity (crossings),"Balb/c mice; 10.0 mg/kg i.p., M ± mx",44.9 ± 13.0
same,Total activity,"Balb/c mice; 10.0 mg/kg i.p., M ± mx",45.9 ± 13.8
same,Vertical activity (rearings),"Balb/c mice; 10.0 mg/kg i.p., M ± mx",0.4 ± 0.3 —
same,Number of defecations,"Balb/c mice; 75.0 mg/kg i.p., M ± mx",2.7 ± 1.3
same,Peripheral activity (crossings),"Balb/c mice; 75.0 mg/kg i.p., M ± mx",8.8 ± 2.9
same,Total activity,"Balb/c mice; 75.0 mg/kg i.p., M ± mx",8.8 ± 2.9
same,Peripheral activity (crossings),"Balb/c mice; 100.0 mg/kg i.p., M ± mx",6.5 ± 3.1
same,Total activity,"Balb/c mice; 100.0 mg/kg i.p., M ± mx",6.5 ± 3.1
same,"effect on the behavior (locomotor activity) of Balb/c mice in open-field test, in words",Balb/c mice,able to activate the behavior of Balb/c mice
same,number of punished lickings (shocks received in 5-min session),outbred male rats; 1.0 mg/kg i.p.,59.1 ± 16.7
same,number of punished lickings (shocks received in 5-min session),outbred male rats; 5.0 mg/kg i.p.,35.3 ± 5.5
same,number of punished lickings (shocks received in 5-min session),outbred male rats; 10.0 mg/kg i.p.,38.0 ± 9.4
same,number of punished lickings (shocks received in 5-min session),outbred male rats; 20.0 mg/kg i.p.,73.9 ± 24.1
same,"effect on heart rate, in words",cats; dose of 5 mg/kg,"small, but statistically significant bradycardia"
same,time of remaining on the rotarod,outbred male mice; 0.1 mg/kg,120 + 0 sec
same,time of remaining on the rotarod,outbred male mice; 1.0 mg/kg,120 + 0 sec
same,time of remaining on the rotarod,outbred male mice; 5.0 mg/kg,120 + 0 sec
same,time of remaining on the rotarod,outbred male mice; 10.0 mg/kg,120 + 0 sec
same,time of remaining on the rotarod,outbred male mice; 20.0 mg/kg,120 + 0 sec
same,duration of sleep after sodium thiopental,male outbred mice; [2],78.4 ± 18.2 min
same,latent time of sleep after sodium thiopental,male outbred mice; [2],2.5 ± 0.2 s
same,duration of sleep after sodium thiopental,male outbred mice; [3],70.5 ± 13.7 min
same,latent time of sleep after sodium thiopental,male outbred mice; [3],2.8 ± 0.2 s
same,duration of sleep after sodium thiopental,male outbred mice; [4],56.8 ± 19.1 min
same,latent time of sleep after sodium thiopental,male outbred mice; [4],2.3 ± 0.2 s
same,duration of sleep after sodium thiopental,male outbred mice; [5],74.7 ± 18.7 min
same,latent time of sleep after sodium thiopental,male outbred mice; [5],2.8 ± 0.3 s
"CCOc1ccc2nc(SCCN3CCCC3)[nH]c2c1 [Compound X, 2-[2-(Pyrrolidino)ethylthio]-5-ethoxybenzimidazole]","effect on the behavior (locomotor activity) of Balb/c mice in open-field test, in words",Balb/c mice,neither activatory nor inhibitory effects
same,"effect on heart rate, in words","cats; doses of 0,5 mg/kg-2,0 mg/kg",small and short bradycardia
same,"antifibrillatory effect, in words",[1],trend to decrease the number of ventricular fibrillations
